Test results taken from BindingDB's records for doi:10.1021/jm0700924 (Astex Therapeutics, 2007).

How the values were obtained:
[1] = molecular target: cAMP-dependent protein kinase catalytic subunit alpha (Bos taurus, UniProt P00517); assay: PKA In Vitro Enzyme Assay; settings: pH 7.2; 22 °C
[2] = molecular target: RAC-beta serine/threonine-protein kinase (Homo sapiens, UniProt P31751); assay: PKB In Vitro Enzyme Assay; settings: pH 7.2; 22 °C
Sequence of RAC-beta serine/threonine-protein kinase (P31751 whole entry): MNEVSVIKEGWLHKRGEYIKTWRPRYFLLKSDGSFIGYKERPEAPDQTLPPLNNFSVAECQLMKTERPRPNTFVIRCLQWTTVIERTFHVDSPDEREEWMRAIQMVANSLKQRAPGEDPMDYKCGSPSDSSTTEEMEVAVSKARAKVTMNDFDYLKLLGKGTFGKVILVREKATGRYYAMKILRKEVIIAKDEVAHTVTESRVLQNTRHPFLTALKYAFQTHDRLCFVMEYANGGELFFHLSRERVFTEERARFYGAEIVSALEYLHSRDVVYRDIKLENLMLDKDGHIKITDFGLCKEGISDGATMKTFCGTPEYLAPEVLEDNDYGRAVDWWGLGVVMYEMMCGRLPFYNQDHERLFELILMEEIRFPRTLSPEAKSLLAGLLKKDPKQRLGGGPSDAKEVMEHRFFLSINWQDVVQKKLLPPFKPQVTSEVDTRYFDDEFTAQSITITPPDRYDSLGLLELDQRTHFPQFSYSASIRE

IC50 [1]: 15 nM | IC50 [2]: 10 nM
SMILES: CNCC(c1ccc(Cl)cc1)c1ccc(-c2ncnc3nc[nH]c23)cc1 (configuration not stated) [[2-(4-chlorophenyl)-2-[4-(9H-purin-6-yl)phenyl]ethyl](methyl)amine]
